Assay results published in patent publication US20260286396A1, “AXL KNOCK OUT CAR T CELLS AND METHODS FOR USE THEREOF” (priority 2023, published 2026).

System: CART19 cells
Experiment: RNA sequencing of CART19 cells with Ingenuity pathway analysis (pathways, upstream regulators)
Format: cell-based, human
Method: CART19 cells were isolated using CD4 and CD8 microbeads to […] the JeKo-1 target cells; this isolation step was performed twice to eliminate the possible contamination of JeKo-1 cells. RNA was isolated from the CART19 cells using QIAGEN RNEASY® Plus Mini Kit. RNA was further treated with DNase I (QIAGEN) and purified using RNA Clean & Concentrator (Zymo Research). […] The fastq files were viewed in FastQC to check for quality (Cox et al., Mol Ther., 29 (4): 1529-1540, 2020). After verifying the lack of adapter sequences with FastQC, Cutadapt (Martin, EMBnet, 17:10-12, 2011) was used to filter for reads greater than 32 base pairs. Output files were re-checked for quality using FastQC. The latest human reference genome (GRCh38.p13) was downloaded from NCBI. Genome index files were generated using STAR (Cox et al. 2020, supra, and Dobin et al., Bioinformatics, 29:15-21, 2012). Paired end reads from fastq files were mapped to the genome for each condition. HTSeq was used to generate expression counts for each gene (Cox et al. 2020, supra; and Putri et al., Bioinformatics, 38:2943-2945, 2022). […] The disruption efficiency of the CRISPR/Cas9 GM-CSF knockout was determined using targeted sequencing through PCR and TIDE analysis (software available at tide.nki.nl) as described elsewhere (Sakemura et al. 2021, supra).
RNA sequencing of CART19 cells was then performed. […] Data were analyzed with the use of QIAGEN Ingenuity Pathway Analysis (IPA) (digitalinsights.qiagen.com/IPA; Krämer et al., Bioinformatics 30 (4): 523-530, 2014).

[1] = Upstream Regulator KLF11, 30 nM, 24 hours vs vehicle
[2] = Upstream Regulator LAMA4, 30 nM, 24 hours vs vehicle
[3] = Upstream Regulator LARP1, flag bias, 30 nM, 24 hours vs vehicle
[4] = Upstream Regulator MFSD2A, 30 nM, 24 hours vs vehicle
[5] = Upstream Regulator MSC, 30 nM, 24 hours vs vehicle
[6] = Upstream Regulator MYC, 30 nM, 24 hours vs vehicle
[7] = Upstream Regulator MYCN, 30 nM, 24 hours vs vehicle
[8] = Upstream Regulator NELFB, 30 nM, 24 hours vs vehicle
[9] = Upstream Regulator NFAT5, 30 nM, 24 hours vs vehicle
[10] = Upstream Regulator NR3C1, 30 nM, 24 hours vs vehicle
[11] = Upstream Regulator NT5E, 30 nM, 24 hours vs vehicle
[12] = Upstream Regulator NUPR1, 30 nM, 24 hours vs vehicle
[13] = Upstream Regulator PAX5, 30 nM, 24 hours vs vehicle
[14] = Upstream Regulator PDGFB, 30 nM, 24 hours vs vehicle
[15] = Upstream Regulator REL, 30 nM, 24 hours vs vehicle
[16] = Upstream Regulator RXRB, 30 nM, 24 hours vs vehicle
[17] = Upstream Regulator SATB1, 30 nM, 24 hours vs vehicle
[18] = Upstream Regulator SHC1, 30 nM, 24 hours vs vehicle
[19] = Upstream Regulator SMAD3, 30 nM, 24 hours vs vehicle
[20] = Upstream Regulator STAT3, 30 nM, 24 hours vs vehicle
[21] = Upstream Regulator STAT6, 30 nM, 24 hours vs vehicle
[22] = Upstream Regulator STIM1, 30 nM, 24 hours vs vehicle
[23] = Upstream Regulator SYK, 30 nM, 24 hours vs vehicle
[24] = Upstream Regulator TAFAZZIN, 30 nM, 24 hours vs vehicle
[25] = Upstream Regulator TCF3, 30 nM, 24 hours vs vehicle
[26] = Upstream Regulator TCF12, 30 nM, 24 hours vs vehicle
[27] = Upstream Regulator TCR, 30 nM, 24 hours vs vehicle
[28] = Upstream Regulator TFRC, 30 nM, 24 hours vs vehicle
[29] = Upstream Regulator TGF BETA, 30 nM, 24 hours vs vehicle
[30] = Upstream Regulator TGFB2, 30 nM, 24 hours vs vehicle
[31] = Upstream Regulator TIGIT, 30 nM, 24 hours vs vehicle
[32] = Upstream Regulator TLR9, 30 nM, 24 hours vs vehicle
[33] = Upstream Regulator TNF, 30 nM, 24 hours vs vehicle
[34] = Upstream Regulator USP38, 30 nM, 24 hours vs vehicle
[35] = Upstream Regulator ZBTB16, 30 nM, 24 hours vs vehicle
[36] = upstream regulator ACE, CART19 stimulated with JeKo-1, 30 nM TP-0903 vs vehicle, 24 hours
[37] = upstream regulator AMBRA1, CART19 stimulated with JeKo-1, 30 nM TP-0903 vs vehicle, 24 hours
[38] = upstream regulator CCR2, CART19 stimulated with JeKo-1, 30 nM TP-0903 vs vehicle, 24 hours
[39] = upstream regulator CIP2A, CART19 stimulated with JeKo-1, 30 nM TP-0903 vs vehicle, 24 hours
[40] = upstream regulator ERBB3, CART19 stimulated with JeKo-1, 30 nM TP-0903 vs vehicle, 24 hours
[41] = upstream regulator HGF, CART19 stimulated with JeKo-1, 30 nM TP-0903 vs vehicle, 24 hours
[42] = upstream regulator IKBKG, CART19 stimulated with JeKo-1, 30 nM TP-0903 vs vehicle, 24 hours
[43] = upstream regulator IL7, CART19 stimulated with JeKo-1, 30 nM TP-0903 vs vehicle, 24 hours
[44] = upstream regulator PPARD, CART19 stimulated with JeKo-1, 30 nM TP-0903 vs vehicle, 24 hours
[45] = upstream regulator SMAD4, CART19 stimulated with JeKo-1, 30 nM TP-0903 vs vehicle, 24 hours

## CN1CCN(Cc2ccc(Nc3ncc(Cl)c(Nc4ccccc4S(=O)(=O)N(C)C)n3)cc2)CC1 [TP-0903, Dubermatinib]
[1]
  Expr Log Ratio: −0.037
  Predicted Activation State: inhibited
[2]
  Activation Z-Score: 2.985
  Expr Log Ratio: −1.478
  Predicted Activation State: activated
Upstream Regulator LARP1, 30 nM, 24 hours vs vehicle
  Expr Log Ratio: −0.22
[3]
  Activation Z-Score: 3.461
  Predicted Activation State: activated
Upstream Regulator MED12, 30 nM, 24 hours vs vehicle
  Expr Log Ratio: 0.075
Upstream Regulator MEK, 30 nM, 24 hours vs vehicle
  Activation Z-Score: −1.682
[4]
  Activation Z-Score: 2.219
  Expr Log Ratio: −0.204
  Predicted Activation State: activated
Upstream Regulator MIR-34A-5P (AND OTHER MIRNAS W/SEED GGCAGUG), flag bias, 30 nM, 24 hours vs vehicle
  Activation Z-Score: 0.22
Upstream Regulator MIR-155-5P (MIRNAS W/SEED UAAUGCU), flag bias, 30 nM, 24 hours vs vehicle
  Activation Z-Score: 1.95
Upstream Regulator MIR-155, 30 nM, 24 hours vs vehicle
  Activation Z-Score: 0.713
[5]
  Activation Z-Score: 0.707
  Expr Log Ratio: 0.103
[6]
  Activation Z-Score: −1.663
  Expr Log Ratio: −0.584
[7]
  Activation Z-Score: −2.592
  Expr Log Ratio: −0.217
  Predicted Activation State: inhibited
[8]
  Activation Z-Score: −1
  Expr Log Ratio: 0.032
[9]
  Activation Z-Score: −0.466
  Expr Log Ratio: −0.006
[10]
  Activation Z-Score: 0.182
  Expr Log Ratio: 0.097
[11]
  Activation Z-Score: 0.447
  Expr Log Ratio: 0.513
[12]
  Activation Z-Score: 0.396
  Expr Log Ratio: 1.017
[13]
  Activation Z-Score: −1.01
  Expr Log Ratio: −0.607
Upstream Regulator PDGF BB, 30 nM, 24 hours vs vehicle
  Activation Z-Score: −0.275
[14]
  Activation Z-Score: −1.513
  Expr Log Ratio: 0.018
Upstream Regulator PKA, 30 nM, 24 hours vs vehicle
  Activation Z-Score: −1.077
Upstream Regulator PKC(S), 30 nM, 24 hours vs vehicle
  Activation Z-Score: 1.03
Upstream Regulator POU2F2, 30 nM, 24 hours vs vehicle
  Expr Log Ratio: −0.143
Upstream Regulator POU2F2, flag bias, 30 nM, 24 hours vs vehicle
  Activation Z-Score: −1
[15]
  Activation Z-Score: −0.988
  Expr Log Ratio: 0.266
[16]
  Activation Z-Score: 1.155
  Expr Log Ratio: −0.076
[17]
  Activation Z-Score: −1.359
  Expr Log Ratio: −0.104
[18]
  Activation Z-Score: 0.963
  Expr Log Ratio: 0.076
[19]
  Activation Z-Score: −1.454
  Expr Log Ratio: 0.337
[20]
  Activation Z-Score: −1.117
  Expr Log Ratio: 0.116
[21]
  Activation Z-Score: −2.16
  Expr Log Ratio: −0.088
  Predicted Activation State: inhibited
[22]
  Activation Z-Score: −3
  Expr Log Ratio: 0.123
  Predicted Activation State: inhibited
[23]
  Activation Z-Score: −1.203
  Expr Log Ratio: −0.298
[24]
  Activation Z-Score: 0
  Expr Log Ratio: −0.111
[25]
  Activation Z-Score: −0.213
  Expr Log Ratio: −0.061
[26]
  Activation Z-Score: −0.207
  Expr Log Ratio: 0.077
[27]
  Activation Z-Score: −2.683
  Predicted Activation State: inhibited
[28]
  Activation Z-Score: 2.335
  Expr Log Ratio: −0.051
  Predicted Activation State: activated
[29]
  Activation Z-Score: −2.031
  Predicted Activation State: inhibited
[30]
  Activation Z-Score: −1.591
  Expr Log Ratio: −1.361
[31]
  Activation Z-Score: −1.982
  Expr Log Ratio: 0.2
[32]
  Activation Z-Score: −0.796
  Expr Log Ratio: −0.186
[33]
  Activation Z-Score: −2.543
  Predicted Activation State: inhibited
Upstream Regulator TP53, 30 nM, 24 hours vs vehicle
  Expr Log Ratio: 0.089
[34]
  Activation Z-Score: −1.213
  Expr Log Ratio: −0.109
[35]
  Activation Z-Score: −0.683
  Expr Log Ratio: −0.061
[36]
  Activation Z-Score: 1
  Expr Log Ratio: −1.023
[37]
  Activation Z-Score: 1.808
  Expr Log Ratio: −0.003
[38]
  Activation Z-Score: 0.314
  Expr Log Ratio: −1.545
[39]
  Activation Z-Score: 0
  Expr Log Ratio: 0.131
[40]
  Activation Z-Score: −1
  Expr Log Ratio: −1.599
Upstream regulator GPD1, CART19 stimulated with JeKo-1, 30 nM TP-0903 vs vehicle, 24 hours
  Expr Log Ratio: 0.348
[41]
  Activation Z-Score: −0.973
  Expr Log Ratio: −0.131
[42]
  Activation Z-Score: −0.788
  Expr Log Ratio: 0.136
[43]
  Activation Z-Score: −0.288
  Expr Log Ratio: 0.684
Upstream regulator LET-7A-5P (AND OTHER MIRNAS W/SEED GAGGUAG), flag bias, CART19 stimulated with JeKo-1, 30 nM TP-0903 vs vehicle, 24 hours
  Activation Z-Score: 1.25
Upstream regulator NFKB (COMPLEX), CART19 stimulated with JeKo-1, 30 nM TP-0903 vs vehicle, 24 hours
  Activation Z-Score: −1.386
Upstream regulator PI3K (COMPLEX), CART19 stimulated with JeKo-1, 30 nM TP-0903 vs vehicle, 24 hours
  Activation Z-Score: −1.952
[44]
  Activation Z-Score: −0.089
  Expr Log Ratio: −0.036
Upstream regulator SCGB1A1, CART19 stimulated with JeKo-1, 30 nM TP-0903 vs vehicle, 24 hours
  Activation Z-Score: 1.993
[45]
  Activation Z-Score: −0.02
  Expr Log Ratio: −0.097
Upstream regulator TFPI2, CART19 stimulated with JeKo-1, 30 nM TP-0903 vs vehicle, 24 hours
  Activation Z-Score: 1.131
